# In patent US6316194A, “Methods and kits for discovery of RNA-binding antimicrobials” (Ribotargets, priority 1999, dated 2001):
# Test system: DABCYL-A site RNA (25 nucleotide model of the 16S rRNA A site, SEQ ID No. 1)
# Assay: Competitive inhibition of paramomycin-TAMRA binding to DABCYL-A site RNA by unlabelled antibiotic (FRET, 96-well plate reader)
# Conditions: 25 nM paramomycin-TAMRA
# Protocol: (§1) Binding of paramomycin-TAMRA to A site RNA was measured in a fluorescent plate reader. Measurements were made in a 96-well plate reader (Wallac victor) with a fixed wavelength of 544 nm and emission at 590 nm. I0 was determined by an initial measurement of a 95 μL solution of 25 nM paramomycin-TAMRA in the presence of 50 mM Tris-HCl pH7.5, 80 mM KCl, 0.1% DMSO 0.00007% Triton X-100 and 0.5 ug/mL BSA presence of 10 μM Neomycin. I (the final measurement) was then measured following the addition of 5 μL of a 20×DABCYL-A site RNA stock solution (corresponding to the amounts shown in the figure).
# as §1, with “of 15” for “of 10”, “in FIG. 9). […]” for “in the figure).”
Compound,Inhibition of paramomycin-TAMRA to A site binding (15 μM Paramomycin (heading)),Inhibition of paramomycin-TAMRA to A site binding (10 μM Neomycin)
NC[C@@H]1O[C@H](O[C@H]2[C@@H](O)[C@H](O[C@@H]3[C@@H](O)[C@H](N)C[C@H](N)[C@H]3O[C@H]3O[C@H](CO)[C@@H](O)[C@H](O)[C@H]3N)O[C@@H]2CO)[C@H](N)[C@@H](O)[C@@H]1O [paramomycin],competitive inhibitor,
Neomycin,,a reduction in fluorescence in the presence of the neomycin competitor was observed
